PubChem BioAssay AID248 (DTP/NCI, 2004)
“And” between values parts separate entries of the source, which are not always exact repeats. Identical values can stand only once. Toxic doses and inconclusive results are not listed.

Test system: L1210 leukemia ip in BDF1 mice, survival T/C
Assay: NCI In Vivo Anticancer Drug Screen. Data for tumor model L1210 Leukemia (intraperitoneal) in B6D2F1 (BDF1) mice
Settings: endpoint: mean survival time, higher = longer survival
How it was run: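 Transplanted-tumor mice were given test agent; controls received vehicle only. Survival readings from the two groups were divided (treated over control).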

[1] = dose: 50.0 mg/kg/injection, schedule: Q01DX009 (ip), vehicle: Klucel (hydroxypropylcellulose) (HPC)
[2] = dose: 100.0 mg/kg/injection, schedule: Q04DX003 (ip), vehicle: Klucel (hydroxypropylcellulose) (HPC)
[3] = dose: 200.0 mg/kg/injection, schedule: Q04DX003 (ip), vehicle: Klucel (hydroxypropylcellulose) (HPC)
[4] = dose: 400.0 mg/kg/injection, schedule: Q04DX003 (ip), vehicle: Klucel (hydroxypropylcellulose) (HPC)
[5] = dose: 100.0 mg/kg/injection, schedule: Q04DX002 (ip), vehicle: saline
[6] = dose: 200.0 mg/kg/injection, schedule: Q04DX002 (ip), vehicle: saline
[7] = dose: 75.0 mg/kg/injection, schedule: Q01DX001 (ip), vehicle: saline
[8] = dose: 150.0 mg/kg/injection, schedule: Q01DX001 (ip), vehicle: saline
[9] = dose: 300.0 mg/kg/injection, schedule: Q01DX001 (ip), vehicle: saline
[10] = dose: 100.0 mg/kg/injection, schedule: Q04DX002 (ip), vehicle: Klucel (hydroxypropylcellulose) (HPC)
[11] = dose: 200.0 mg/kg/injection, schedule: Q04DX002 (ip), vehicle: Klucel (hydroxypropylcellulose) (HPC)
[12] = dose: 400.0 mg/kg/injection, schedule: Q04DX002 (ip), vehicle: Klucel (hydroxypropylcellulose) (HPC)
[13] = dose: 100.0 mg/kg/injection, schedule: Q04DX003 (ip), vehicle: saline
[14] = dose: 200.0 mg/kg/injection, schedule: Q04DX003 (ip), vehicle: saline
[15] = dose: 400.0 mg/kg/injection, schedule: Q04DX003 (ip), vehicle: saline
[16] = dose: 100.0 mg/kg/injection, schedule: Q01DX001 (ip), vehicle: carboxymethylcellulose (CMC)
[17] = dose: 200.0 mg/kg/injection, schedule: Q01DX001 (ip), vehicle: carboxymethylcellulose (CMC)
[18] = dose: 400.0 mg/kg/injection, schedule: Q01DX001 (ip), vehicle: carboxymethylcellulose (CMC)

SMILES: C/C(=N/N(C)C)c1ccc(Br)cc1
- T/C (dose: 6.25 mg/kg/injection, schedule: Q01DX009 (ip), vehicle: saline): 100 % of control
- T/C (dose: 12.5 mg/kg/injection, schedule: Q01DX009 (ip), vehicle: saline): 94 % of control
- T/C (dose: 25.0 mg/kg/injection, schedule: Q01DX009 (ip), vehicle: saline): 92 % of control
- T/C [1]: 108 % of control

SMILES: C=CCN(CC=C)c1nn[nH]n1
- T/C [2]: 92 % of control
- T/C [3]: 88 % of control
- T/C [4]: 88 % of control

SMILES: O=C1CN(CCN2CC(=O)NC(=O)C2)CC(=O)N1
- T/C (dose: 6.25 mg/kg/injection, schedule: Q03HX008 (ip), vehicle: steriod suspending solution): 112 % of control
- T/C (dose: 10.8 mg/kg/injection, schedule: Q01DX009 (ip), vehicle: steriod suspending solution): 103 % of control
- T/C (dose: 12.5 mg/kg/injection, schedule: Q01DX009 (ip), vehicle: steriod suspending solution): 154 % of control
- T/C (dose: 12.5 mg/kg/injection, schedule: Q01DX009 (oral), vehicle: steriod suspending solution): 123 % of control
- T/C (dose: 12.5 mg/kg/injection, schedule: Q01DX009 (sc), vehicle: steriod suspending solution): 116 % of control
- T/C (dose: 12.5 mg/kg/injection, schedule: Q03HX024 (ip), vehicle: steriod suspending solution): 177 % of control
- T/C (dose: 12.5 mg/kg/injection, schedule: Q03HX032 (ip), vehicle: other): 156 % of control and 167 % of control
- T/C (dose: 14.0 mg/kg/injection, schedule: Q01DX009 (ip), vehicle: steriod suspending solution): 108 % of control
- T/C (dose: 18.7 mg/kg/injection, schedule: Q03HX032 (ip), vehicle: other): 214 % of control and 216 % of control
- T/C (dose: 23.0 mg/kg/injection, schedule: Q01DX009 (ip), vehicle: steriod suspending solution): 119 % of control
- T/C (dose: 25.0 mg/kg/injection, schedule: Q01DX009 (oral), vehicle: steriod suspending solution): 116 % of control
- T/C (dose: 25.0 mg/kg/injection, schedule: Q01DX Z (ip), vehicle: steriod suspending solution): 150 % of control
- T/C (dose: 25.0 mg/kg/injection, schedule: Q03HX024 (ip), vehicle: steriod suspending solution): 153 % of control
- T/C (dose: 39.0 mg/kg/injection, schedule: Q01DX001 (ip), vehicle: steriod suspending solution): 109 % of control
- T/C (dose: 39.0 mg/kg/injection, schedule: Q01DX009 (ip), vehicle: steriod suspending solution): 152 % of control
- T/C (dose: 50.0 mg/kg/injection, schedule: Q01DX001 (ip), vehicle: steriod suspending solution): 107 % of control
- T/C (dose: 50.0 mg/kg/injection, schedule: Q01DX009 (ip), vehicle: steriod suspending solution): 212 % of control
- T/C (dose: 50.0 mg/kg/injection, schedule: Q01DX009 (oral), vehicle: steriod suspending solution): 113 % of control
- T/C (dose: 50.0 mg/kg/injection, schedule: Q01DX009 (sc), vehicle: steriod suspending solution): 154 % of control
- T/C (dose: 50.0 mg/kg/injection, schedule: Q01DX Z (ip), vehicle: steriod suspending solution): 164 % of control
- T/C (dose: 50.0 mg/kg/injection, schedule: Q03HX008 (ip), vehicle: steriod suspending solution): 164 % of control
- T/C (dose: 50.0 mg/kg/injection, schedule: Q03HX024 (ip), vehicle: steriod suspending solution): 165 % of control
- T/C (dose: 65.0 mg/kg/injection, schedule: Q01DX001 (ip), vehicle: steriod suspending solution): 118 % of control
- T/C (dose: 65.0 mg/kg/injection, schedule: Q01DX009 (ip), vehicle: steriod suspending solution): 176 % of control
- T/C (dose: 100.0 mg/kg/injection, schedule: Q01DX001 (ip), vehicle: steriod suspending solution): 112 % of control
- T/C (dose: 100.0 mg/kg/injection, schedule: Q01DX009 (oral), vehicle: steriod suspending solution): 121 % of control
- T/C (dose: 100.0 mg/kg/injection, schedule: Q04DX003 (ip), vehicle: steriod suspending solution): 154 % of control
- T/C (dose: 200.0 mg/kg/injection, schedule: Q01DX001 (ip), vehicle: steriod suspending solution): 166 % of control
- T/C (dose: 200.0 mg/kg/injection, schedule: Q04DX003 (ip), vehicle: steriod suspending solution): 189 % of control
- T/C (dose: 400.0 mg/kg/injection, schedule: Q01DX001 (ip), vehicle: steriod suspending solution): 119 % of control
- T/C (dose: 400.0 mg/kg/injection, schedule: Q04DX003 (ip), vehicle: steriod suspending solution): 162 % of control

SMILES: NC(CCl)=NCCC1=NCCN1
- T/C [5]: 100 % of control
- T/C [6]: 106 % of control

SMILES: O=C(Nc1ccc(O)cc1)Sc1ccccc1
- T/C (dose: 75.0 mg/kg/injection, schedule: Q01DX001 (ip), vehicle: gum acacia): 107 % of control

SMILES: CCCCOC(=O)Cc1cccc2ccccc12
- T/C (dose: 222.0 mg/kg/injection, schedule: Q01DX Z (ip), vehicle: methylcellulose (MC)): 102 % of control
- T/C (dose: 333.0 mg/kg/injection, schedule: Q01DX Z (ip), vehicle: methylcellulose (MC)): 110 % of control
- T/C (dose: 500.0 mg/kg/injection, schedule: Q01DX Z (ip), vehicle: methylcellulose (MC)): 104 % of control

SMILES: CCOC(=O)C(=N\Nc1cc(C)ccc1C)/C(C)=N\NC(N)=S
- T/C [7]: 87 % of control
- T/C [8]: 97 % of control
- T/C [9]: 97 % of control

SMILES: O=C(COc1ccc(Br)cc1)Nc1ccc(Br)cc1
- T/C [10]: 95 % of control
- T/C [11]: 95 % of control
- T/C [12]: 89 % of control

SMILES: COC(=O)c1ccccc1NC(=O)Nc1ccc(F)cc1
- T/C (dose: 100.0 mg/kg/injection, schedule: Q01DX009 (ip), vehicle: Klucel (hydroxypropylcellulose) (HPC)): 90 % of control
- T/C (dose: 200.0 mg/kg/injection, schedule: Q01DX009 (ip), vehicle: Klucel (hydroxypropylcellulose) (HPC)): 90 % of control
- T/C (dose: 400.0 mg/kg/injection, schedule: Q01DX009 (ip), vehicle: Klucel (hydroxypropylcellulose) (HPC)): 90 % of control

SMILES: COc1cc(/C=C/[N+](=O)[O-])c([N+](=O)[O-])cc1OC
- T/C (dose: 50.0 mg/kg/injection, schedule: Q01DX009 (ip), vehicle: saline with Tween-80): 90 % of control
- T/C (dose: 100.0 mg/kg/injection, schedule: Q01DX001 (ip), vehicle: saline): 106 % of control
- T/C (dose: 100.0 mg/kg/injection, schedule: Q01DX009 (ip), vehicle: saline with Tween-80): 87 % of control
- T/C (dose: 200.0 mg/kg/injection, schedule: Q01DX001 (ip), vehicle: saline): 101 % of control

SMILES: O=S(=O)(SSS(=O)(=O)c1ccc(Cl)cc1)c1ccc(Cl)cc1
- T/C [13]: 90 % of control
- T/C [14]: 90 % of control
- T/C [15]: 90 % of control

SMILES: COc1cc([N+](=O)[O-])ccc1NC(=O)Oc1ccccc1C(N)=O
- T/C (dose: 12.5 mg/kg/injection, schedule: Q01DX009 (ip), vehicle: Klucel (hydroxypropylcellulose) (HPC)): 102 % of control
- T/C (dose: 25.0 mg/kg/injection, schedule: Q01DX009 (ip), vehicle: Klucel (hydroxypropylcellulose) (HPC)): 100 % of control
- T/C [1]: 98 % of control

SMILES: CC(=O)OCCC/C(=C/c1cc2ccccc2c2ccccc12)[N+](=O)[O-]
- T/C [16]: 95 % of control
- T/C [17]: 95 % of control
- T/C [18]: 97 % of control

SMILES: COc1cc2c(c(O)c1OCC=C(C)C)c(=O)c1ccccc1n2C
- T/C [16]: 93 % of control
- T/C [17]: 95 % of control
- T/C [18]: 88 % of control

SMILES: CCN(CC)C(=O)C1C2CC3OC(=O)C1C3C2 (stereo not drawn)
- T/C [13]: 105 % of control and 108 % of control
- T/C [14]: 94 % of control and 102 % of control
- T/C [15]: 104 % of control

SMILES: CC(O)C(O)CC(/C=N/NC(=O)c1ccccc1)=N/NC(=O)c1ccccc1 (stereo not drawn)
- T/C [2]: 107 % of control
- T/C [3]: 115 % of control
- T/C [4]: 109 % of control

SMILES: C1CC2CC3OC3CC12 (stereo not drawn)
- T/C [10]: 95 % of control
- T/C [11]: 92 % of control
- T/C [12]: 92 % of control

SMILES: CCOP(=O)(OCC)N(C(=O)O)C1CCCCC1
- T/C (dose: 50.0 mg/kg/injection, schedule: Q01DX009 (ip), vehicle: saline): 96 % of control
- T/C (dose: 100.0 mg/kg/injection, schedule: Q01DX009 (ip), vehicle: saline): 109 % of control
- T/C (dose: 200.0 mg/kg/injection, schedule: Q01DX009 (ip), vehicle: saline): 108 % of control
- T/C (dose: 400.0 mg/kg/injection, schedule: Q01DX009 (ip), vehicle: saline): 105 % of control

SMILES: CN(C)c1ccc(-c2cc(C(=O)O)c3cc(I)ccc3n2)c(Cl)c1
- T/C [7]: 88 % of control
- T/C [8]: 86 % of control
- T/C [9]: 91 % of control

SMILES: CCSC(=N)N
- T/C [5]: 118 % of control
- T/C [6]: 104 % of control
- T/C (dose: 400.0 mg/kg/injection, schedule: Q04DX002 (ip), vehicle: saline): 91 % of control
